Assay results from PubChem BioAssay AID588341 (The Scripps Research Institute Molecular Screening Center, 2011).
The source made the active and inactive calls. The rule behind the calls is not given here.

Target: Beta-lactamase (reporter enzyme, TEM-1 type bla) (UniProt Q932Y6)
Assay: beta-lactamase reporter inhibitor potency, dose response, artefact control for TLR9-MyD88 binding inhibitor project, BLA reporter cells, FRET fluorescence (AID 588341)
Conditions: BLA reporter cell line, FRET fluorescence inhibition

Beta-lactamase (reporter enzyme, TEM-1 type bla), sequence (Q932Y6 1-286): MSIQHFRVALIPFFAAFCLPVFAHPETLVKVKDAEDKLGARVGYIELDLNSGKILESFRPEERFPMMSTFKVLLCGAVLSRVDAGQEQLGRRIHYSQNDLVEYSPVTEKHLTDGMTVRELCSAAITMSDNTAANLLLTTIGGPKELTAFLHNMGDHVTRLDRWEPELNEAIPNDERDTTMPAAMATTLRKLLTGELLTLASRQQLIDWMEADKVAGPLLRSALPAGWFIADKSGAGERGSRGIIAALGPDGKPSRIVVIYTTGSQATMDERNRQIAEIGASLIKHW

- IC50: inactive
SMILES: COc1cc(/C=C/C(=O)/C=C(O)/C=C/c2ccc(O)c(OC)c2)ccc1O
